Peptide text beside a SMILES is read from it. * marks the point of attachment. Mts = Cc1cc(C)c(S(=O)(=O)*)c(C)c1; Tos = Cc1ccc(S(=O)(=O)*)cc1
Test system: spontaneously hypertensive rats
Assay: Antihypertensive activity: systolic blood pressure measured indirectly on conscious SHR after a single oral dose
Type: in vivo
Settings: male; for Hours after Administration (time of lowest systolic blood pressure) / Systolic Blood Pressure, Lowest value after Administration: 0.05 mmole/kg aqueous solution, once force-fed into the stomach; for ΔBlood Pressure (systolic): 0.05 mmole/kg once orally, lowest value minus value before administration
Description: The antihypertensive activity of the peptide derivatives as prepared above was determined.
As subject animals there were used 5 SHR which had been trained enough and been confirmed to be hypertensive spontaneously hypertensive rats (male, body weight of 400-440 g),per sample
As an instrument for measuring the blood pressure there was used Programmed Electro-Sphygmomanometer PE-300 (Narco Co., U.S.A.), and the blood pressure was indirectly measured on conscious rats.
An aqueous solution of a sample (0.05 mmole/kg) was once force-fed into the stomach by means of a peroal probe. As a control, deionized water was fed to the same animals as above.

Row | Molecule | Hours after Administration (time of lowest systolic blood pressure) [h] | Systolic Blood Pressure, Lowest value after Administration [mmHg] | ΔBlood Pressure (systolic) [mmHg]
1 | 2-benzenesulfonylamino isobutyryl-L-proline sodium salt [Example 21] | 7 | 193 | -17
2 | CC(C)[C@H](NS(=O)(=O)c1ccccc1)C(=O)N1CCC[C@H]1C(=O)O [Example 11, N-benzenesulfonyl-L-valyl-L-proline] | 7 | 203 | -11
3 | C[C@H](NS(=O)(=O)c1ccccc1)C(=O)N1CCC[C@H]1C(=O)O [Example 1, N-benzenesulfonyl-L-alanyl-L-proline] | 8 | 185 | -28
4 | C[C@H](NS(=O)(=O)c1ccccc1C(=O)O)C(=O)N1CCC[C@H]1C(=O)O [Example 8, N-o-carboxybenzenesulfonyl-L-alanyl-L-proline] | 7 | 194 | -9
5 | NCCCC[C@H](NS(=O)(=O)c1ccccc1)C(=O)N1CCC[C@H]1C(=O)O [Example 19, N^α -benzenesulfonyl-L-lysyl-L-proline] | 7 | 191 | -28
6 | C[C@H](NS(=O)(=O)c1ccccc1[N+](=O)[O-])C(=O)N1CCC[C@H]1C(=O)O [Example 5, N-α-nitrobenzenesulfonyl-L-alanyl-L-proline] | 7 | 193 | -18
7 | O=C(O)[C@@H]1CCCN1C(=O)CNS(=O)(=O)c1ccccc1 [Example 10, N-benzenesulfonylglycyl-L-proline] | 7 | 201 | -9
8 | Cc1cc(C)c(S(=O)(=O)N[C@@H](C)C(=O)N2CCC[C@H]2C(=O)O)c(C)c1 [Example 2, N-mesitylenesulfonyl-L-alanyl-L-proline] (Mts-Ala-Pro-OH) | 7 | 191 | -11
9 | O=C(O)[C@@H]1CCCN1C(=O)[C@@H](NS(=O)(=O)c1ccccc1)c1ccccc1 [Example 13, N-benzenesulfonyl-L-phenylglycyl-L-proline] | 7 | 204 | -8
10 | C[C@H](NS(=O)(=O)c1cccc2ccccc12)C(=O)N1CCC[C@H]1C(=O)O [Example 4, N-α-naphthalenesulfonyl-L-alanyl-L-proline] | 7 | 185 | -13
11 | O=C(O)[C@@H]1CCCN1C(=O)[C@H](CO)NS(=O)(=O)c1ccccc1 [Example 17, N-benzenesulfonyl-L-seryl-L-proline] | 7 | 194 | -22
12 | C[C@H](NS(=O)(=O)c1ccccc1N)C(=O)N1CCC[C@H]1C(=O)O [Example 6, N-o-aminobenzenesulfonyl-L-alanyl-L-proline] | 7 | 197 | -35
13 | N-ethanesulfonyl-L-alanyl-L-proline potassium salt [Example 9] | 7 | 213 | -5
14 | Cc1ccc(S(=O)(=O)N[C@@H](C)C(=O)N2CCC[C@H]2C(=O)O)cc1 [Example 3, N-p-toluenesulfonyl-L-alanyl-L-proline] (Tos-Ala-Pro-OH) | 7 | 194 | -12
15 | CSCC[C@H](NS(=O)(=O)c1ccccc1)C(=O)N1CCC[C@H]1C(=O)O [Example 15, N-benzenesulfonyl-L-methionyl-L-proline] | 4 | 206 | -13
16 | O=C(O)[C@@H]1CCCN1C(=O)[C@@H]1CCCN1S(=O)(=O)c1ccccc1 [Example 16, N-benzenesulfonyl-L-prolyl-L-proline] | 7 | 195 | -21
17 | O=C(O)CC[C@H](NS(=O)(=O)c1ccccc1)C(=O)N1CCC[C@H]1C(=O)O [Example 18, N-benzenesulfonyl-L-glutamyl-L-proline] | 7 | 189 | -14
18 | O=C(O)[C@@H]1CCCN1C(=O)[C@H](Cc1ccccc1)NS(=O)(=O)c1ccccc1 [Example 14, N-benzenesulfonyl-L-phenylalanyl-L-proline] | 7 | 201 | -18
19 | CC[C@H](C)[C@H](NS(=O)(=O)c1ccccc1)C(=O)N1CCC[C@H]1C(=O)O [Example 12, N-benzenesulfonyl-L-isoleucyl-L-proline] | 7 | 191 | -21
20 | C[C@H](NS(=O)(=O)Cc1ccccc1)C(=O)N1CCC[C@H]1C(=O)O [Example 7, N-benzylsulfonyl-L-alanyl-L-proline] | 7 | 194 | -21
